From patent publication US12151021B2, “Implantable nanochannel delivery devices” (THE METHODIST HOSPITAL SYSTEM, priority 2015, dated 2024)
Counter-ions that a name gives are not always drawn. Like-named read-outs stand apart in the source and are kept apart here.

What was measured:
[1] = Doxorubicin release in vitro from nanochannel capsules (UV-Vis at 479 nm); type: physicochemical; settings: in 4 days; capsules with 20 nm nanochannels, loading solution 0.58 mg/ml, 23 °C, n=5
Method: Doxorubicin loaded nanochannel capsules (n=5) were immersed in 400 μl of Millipore water in microvolume spectroscopy cuvettes sealed with tight-fitting lids. Absorbance measures were taken every 10 min for 9 days at 479 nm by a custom-built robotic carousel (Quantum Northwest, Inc.) connected to a UV-Vis spectrophotometer (Cary 50, Agilent Technologies, Inc.). The 479 nm wavelength was selected as optimal for doxorubicin with this system by prior full spectrum analysis. The cuvettes were maintained at 23±0.3° C. for the duration of the experiment. Data were normalized with respect to a Millipore water blank, and the cumulative release of the agents was obtained through comparison to a standard curve.
The nanochannel capsules were loaded with Doxorubicin and placed in isotonic conditions in vitro to characterize their release kinetics. The nanochannel capsules were immersed in PBS within microvolume cuvettes, which were sealed with tight-fitting lids. Release into the sink solution was measured via absorbance measurements at 479 nm by a robotic 48-cell carousel (Quantum Northwest, Inc.) linked to a UV-Vis Spectrophotometer (Cary 50, Agilent Technologies, Inc.). Overall drug release was evaluated via comparison of measured absorbances to standard curves following normalization with respect to initial conditions (t=0).

[2] = Magnevist release in vitro from PEEK nanochannel capsules (MR T1 mapping); type: physicochemical; settings: at plateau beginning by Day 3; 47 mg/ml loading, PBS, 37 °C, n=4; approximation based on loading concentration
Method: The drug eluting fiducial markers were loaded with a number of different molecules to examine release kinetics into simulated physiological solution in vitro. In a series of experiments, the implants were loaded with ˜2.5 μL of OX86, FGK45, or Magnevist, placed in a 70 μL cuvette, and immersed in PBS. The cuvettes were sealed with tight-fitting lids and kept in an incubator at 37° C. The PBS solution was sampled and replaced daily. The OX86 and FGK45 release was quantified by micro-BCA assay (Sigma-Aldrich). The Magnevist was quantified through MR scanning. (7 T magnet, cut-down 96-well plate in a wrist coil). An additional experiment for quantifying IgG release was conducted similarly, but at room temperature and quantified via UV-Vis spectroscopy at 280 nm sampled every 10 minutes.
PEEK nanochannel capsules loaded with Magnevist (n=4) were immersed in 500 μl of PBS in microvolume cuvettes sealed with tight-fitting lids. These microvolume cuvettes were then placed in a 37° C. incubator. The 500 μl of sink solution were sampled and replaced daily for 7 days. The sink samples were stored at 4° C. Magnevist concentration within the samples was quantified through MR imaging of the samples within a custom-built 49 well plate (7×7) with 300 μl well volumes. […]

[3] = parameters: species or system C57B16 mice; settings: mouse, in vivo
Method: All animal procedures described herein followed IACUC protocols approved by their requisite institutions. C57B16 mice were implanted with 10^6 melanoma cells (B16F10) in the upper thigh (n=5). Once tumors reached 12 mm in its longer axis, sterile nanochannel implants loaded with 470 mg/ml of Magnevist were percutaneously implanted into the tumors with a 15 G, percutaneous trocar at a 90°angle from the axial axis of the tumor. Briefly, rodents were anesthetized with 3% isofluorane and immobilized within a sterile field. The percutaneous implantation site was cleaned with chlorhexidine and 70% ethanol and all nearby hair was shaved. The trocar was inserted to the target depth of approximately 5 mm. The nanochannel capsule was extruded through manual pressure with the obturator and the trocar was removed. A single drop of bupivicaine was added to the implantation site. The implantation site was closed with suture to ensure implant immobility and restrict animal agitation of the site. The mice had secondary heating maintained throughout the procedure and until they recovered from anesthesia.
For the in vivo MR imaging, T1- and T2-weighted images were acquired axially with respect to the laboratory frame of reference on a 7 T Bruker BioSpec Scanner (Bruker Biospin, Billerica, MA, USA). […]

[4] = from BioNumbers (Milo et al.), cited from earlier work

For `COc1cccc2c1C(=O)c1c(O)c3c(c(O)c1C2=O)C[C@@](O)(C(=O)CO)C[C@@H]3O[C@H]1C[C@H](N)[C@H](O)[C@H](C)O1` [Doxorubicin, Doxorubicin hydrochloride salt], the “release depleted fraction of the reservoir volume” value [1] was “around 80%”.
For `CNC[C@H](O)[C@@H](O)[C@H](O)[C@H](O)CO.CNC[C@H](O)[C@@H](O)[C@H](O)[C@H](O)CO.O=C([O-])CN(CCN(CC(=O)[O-])CC(=O)O)CCN(CC(=O)[O-])CC(=O)O.[Gd+3]` [Magnevist, gadopentetate dimeglumine], the “loaded Magnevist released” value [2] was 85%, the “distance from implant's exterior at which observable enhancement begins” value [3] was 2-5 mm and the “thickness of band of observable enhancement” value [3] was “approximately 1 mm”.
For Immunoglobulin G, the hydrodynamic radius [4] is listed as 6.4 nm and the hydrodynamic radius ([4]; listed as IgG isotype immunoproteins) is listed as “approximately 6.4 nm”.
